Assay: xn = mol fraction of the nth substance listed
Settings: Liquid, Vibrating tube method

COC(=O)OC [dimethyl carbonate] + CO
mass density [kg/m3]
Settings | 100 kPa | 5000 kPa | 10000 kPa | 15000 kPa | 20000 kPa | 25000 kPa | 30000 kPa | 35000 kPa | 40000 kPa
298.15 K, x1 = 0.0253 | – | – | – | – | – | 822.44 | 826.09 | 829.61 | 832.77
298.15 K, x1 = 0.0503 | – | – | – | – | – | 836.02 | 839.68 | 843.21 | 846.39
298.15 K, x1 = 0.0745 | – | – | – | – | – | 848.53 | 852.21 | 855.74 | 858.95
298.15 K, x1 = 0.101 | – | – | – | – | – | 861.5 | 865.23 | 868.78 | 872.01
298.15 K, x1 = 0.1502 | – | – | – | – | – | 883.85 | 887.6 | 891.17 | 894.43
298.15 K, x1 = 0.2059 | – | – | – | – | – | 906.93 | 910.69 | 914.23 | 917.53
298.15 K, x1 = 0.25 | – | – | – | – | – | 923.6 | 927.38 | 930.92 | 934.25
298.15 K, x1 = 0.3004 | – | – | – | – | – | 941.13 | 944.97 | 948.53 | 951.89
298.15 K, x1 = 0.3426 | – | – | – | – | – | 954.69 | 958.54 | 962.11 | 965.49
298.15 K, x1 = 0.3984 | – | – | – | – | – | 971.23 | 975.08 | 978.67 | 982.08
298.15 K, x1 = 0.4514 | – | – | – | – | – | 985.66 | 989.52 | 993.12 | 996.55
298.15 K, x1 = 0.5054 | – | – | – | – | – | 999.17 | 1003.04 | 1006.64 | 1010.1
298.15 K, x1 = 0.5509 | – | – | – | – | 1005.74 | 1009.72 | 1013.59 | 1017.21 | 1020.68
298.15 K, x1 = 0.6002 | – | – | – | – | 1016.28 | 1020.27 | 1024.16 | 1027.78 | 1031.27
298.15 K, x1 = 0.6469 | – | – | – | – | 1025.6 | 1029.6 | 1033.49 | 1037.12 | 1040.63
298.15 K, x1 = 0.6993 | – | – | – | – | 1035.37 | 1039.38 | 1043.27 | 1046.86 | 1050.38
298.15 K, x1 = 0.7496 | – | – | – | – | 1044.11 | 1048.12 | 1052.02 | 1055.62 | 1059.15
298.15 K, x1 = 0.799 | – | – | – | – | 1052.15 | 1056.12 | 1060.03 | 1063.63 | 1067.18
298.15 K, x1 = 0.837 | – | – | – | – | 1058.02 | 1061.99 | 1065.9 | 1069.51 | 1073.07
298.15 K, x1 = 0.9093 | – | – | – | – | 1068.61 | 1072.59 | 1076.46 | 1080.07 | 1083.65
298.15 K, x1 = 0.9239 | – | – | – | – | 1070.65 | 1074.63 | 1078.5 | 1082.11 | 1085.7
298.15 K, x1 = 0.9575 | – | – | – | – | 1075.22 | 1079.21 | 1083.09 | 1086.7 | 1090.29
298.15 K, x1 = 0.9861 | – | – | – | – | 1079.06 | 1083.05 | 1086.92 | 1090.54 | 1094.14
298.15 K, x1 = 1 | – | – | – | – | 1080.9 | 1084.89 | 1088.82 | 1092.44 | 1096.04
303.15 K, x1 = 0.0253 | 796.3 | 801.03 | 805.57 | 810.1 | 814.43 | 818.36 | 822.05 | – | –
303.15 K, x1 = 0.0503 | 809.73 | 814.5 | 819.05 | 823.59 | 827.93 | 831.86 | 835.56 | – | –
303.15 K, x1 = 0.0745 | 822.09 | 826.87 | 831.44 | 835.97 | 840.32 | 844.26 | 848.02 | – | –
303.15 K, x1 = 0.101 | 834.96 | 839.75 | 844.32 | 848.86 | 853.22 | 857.21 | 860.97 | – | –
303.15 K, x1 = 0.1502 | 857.02 | 861.81 | 866.4 | 870.99 | 875.37 | 879.38 | 883.14 | – | –
303.15 K, x1 = 0.2059 | 879.85 | 884.65 | 889.26 | 893.85 | 898.26 | 902.32 | 906.14 | – | –
303.15 K, x1 = 0.25 | 896.36 | 901.21 | 905.83 | 910.43 | 914.79 | 918.87 | 922.69 | – | –
303.15 K, x1 = 0.3004 | 913.71 | 918.57 | 923.21 | 927.81 | 932.19 | 936.27 | 940.09 | – | –
303.15 K, x1 = 0.3426 | 927.12 | 931.98 | 936.63 | 941.23 | 945.62 | 949.71 | 953.54 | – | –
303.15 K, x1 = 0.3984 | 943.53 | 948.4 | 953.06 | 957.62 | 962.02 | 966.12 | 969.95 | – | –
303.15 K, x1 = 0.4514 | 957.9 | 962.78 | 967.4 | 971.96 | 976.32 | 980.43 | 984.26 | – | –
303.15 K, x1 = 0.5054 | 971.35 | 976.23 | 980.81 | 985.37 | 989.75 | 993.91 | 997.75 | – | –
303.15 K, x1 = 0.5509 | 981.85 | 986.74 | 991.33 | 995.89 | 1000.23 | 1004.39 | 1008.28 | – | –
303.15 K, x1 = 0.6002 | 992.37 | 997.25 | 1001.85 | 1006.41 | 1010.76 | 1014.93 | 1018.82 | – | –
303.15 K, x1 = 0.6469 | 1001.6 | 1006.49 | 1011.1 | 1015.61 | 1019.97 | 1024.14 | 1028.04 | – | –
303.15 K, x1 = 0.6993 | 1011.29 | 1016.13 | 1020.75 | 1025.26 | 1029.62 | 1033.8 | 1037.7 | – | –
303.15 K, x1 = 0.7496 | 1019.99 | 1024.84 | 1029.41 | 1033.93 | 1038.25 | 1042.43 | 1046.33 | – | –
303.15 K, x1 = 0.799 | 1028.01 | 1032.86 | 1037.44 | 1041.96 | 1046.28 | 1050.47 | 1054.37 | – | –
303.15 K, x1 = 0.837 | 1033.85 | 1038.71 | 1043.24 | 1047.76 | 1052.09 | 1056.23 | – | – | –
303.15 K, x1 = 0.9093 | 1044.36 | 1049.21 | 1053.76 | 1058.22 | 1062.51 | 1066.71 | – | – | –
303.15 K, x1 = 0.9239 | 1046.39 | 1051.25 | 1055.79 | 1060.26 | 1064.55 | 1068.75 | – | – | –
303.15 K, x1 = 0.9575 | 1050.95 | 1055.81 | 1060.36 | 1064.83 | 1069.12 | 1073.32 | – | – | –
303.15 K, x1 = 0.9861 | 1054.77 | 1059.63 | 1064.18 | 1068.65 | 1072.95 | 1077.15 | – | – | –
303.15 K, x1 = 1 | 1056.61 | 1061.47 | 1066.02 | 1070.49 | 1074.79 | 1078.99 | – | – | –

— the NIST ThermoML archive (doi:10.1016/j.jct.2019.02.011)
